# Laboratory results reported in paper PMC9775191, “A Subset Screen of the Compounds Australia Scaffold Library Identifies 7-Acylaminodibenzoxazepinones as Potent and Selective Hits for Anti-Giardia Drug Discovery” (Biomedicines, 2022).
# Test system: G. duodenalis BRIS/91/HEPU/1279
# Experiment: Primary Giardia screen at 10 µM (live-cell imaging, automated counting)
# Format: cell-based, Giardia duodenalis
# Details: 24 h
# Outline: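 One concentration, 10 μM, is screened per compound in singlicate under microaerophilic gas (3% O2, 5% CO2, N2). Inhibition comes from automated image-based counts at 24 and 48 h, relative to 0.2% DMSO controls.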
row,SMILES,Average % Inhibition 24h [%]
1,Cn1nc(-c2nnc(-c3ccccc3Cl)o2)c2c1CCN(C(=O)c1ccc(F)c(F)c1)C2 [SN00796834],6.4

# Same assay, conditions: 24 h, first singlicate assay
row,SMILES,% Inhibition n=1 24h [%]
1,Cn1nc(-c2nnc(-c3ccccc3Cl)o2)c2c1CCN(C(=O)c1ccc(F)c(F)c1)C2 [SN00796834],12.9

# Same assay, conditions: 24 h, re-assessment
row,SMILES,% Inhibition n=2 24h [%]
1,Cn1nc(-c2nnc(-c3ccccc3Cl)o2)c2c1CCN(C(=O)c1ccc(F)c(F)c1)C2 [SN00796834],0.0

# Same assay, conditions: 48 h
row,SMILES,Average % Inhibition 48h [%]
1,Cn1nc(-c2nnc(-c3ccccc3Cl)o2)c2c1CCN(C(=O)c1ccc(F)c(F)c1)C2 [SN00796834],12.8

# Same assay, conditions: 48 h, first singlicate assay
row,SMILES,% Inhibition n=1 48h [%]
1,Cc1ccc(CNC(=O)c2ccc(-n3cnc(NC(=O)C(C)C)c3)cc2)cc1 [SN00796570],29.7
2,Cc1ccc2oc(-c3noc(C4CC(=O)N(c5ccccc5)C4)n3)c(C)c2c1 (stereo not shown) [SN00796597],2.9
3,COc1ccc2oc(-c3noc(C(NC(=O)c4ccco4)C(C)C)n3)c(C)c2c1 (stereo not shown) [SN00796606],9.9
4,Cc1ccc(-c2noc(-c3ccc(N4CCN(Cc5ccc6c(c5)OCO6)CC4)nc3)n2)cc1 [SN00796635],7.2
5,CCN1CCN(c2ccc(-c3nc(-c4cccc(F)c4)no3)cn2)CC1 [SN00796649],48.2
6,CCc1ccc(NC(=O)N2CCc3c(c(-c4nc(C)no4)nn3C)C2)cc1 [SN00796748],19.4
7,Cc1noc(-c2nn(C)c3c2CN(S(=O)(=O)Cc2cccc(F)c2)CC3)n1 [SN00796798],14.3
8,Cn1nc(-c2nnc(-c3ccccc3Cl)o2)c2c1CCN(C(=O)c1ccc(F)c(F)c1)C2 [SN00796834],25.5
9,CCCS(=O)(=O)N1CCc2c(c(-c3nnc(-c4ccc(F)cc4)o3)nn2C)C1 [SN00796867],0.0
10,COc1ccc(S(=O)(=O)N(C)c2ccsc2C(=O)NCCC(C)C)cc1 [SN00797030],10.4
11,Cc1ccc(S(=O)(=O)N(C)c2ccsc2C(=O)Nc2ccc(C)c(C)c2)cc1 [SN00797041],12.0
12,Cc1ccc(NC(=O)Cn2c(=O)nc(NC3CCCC3)c3ccccc32)cc1C [SN00797075],0.0
13,O=C(NCc1cccc(C(F)(F)F)c1)C1CCCN(c2nccnc2Oc2ccccc2)C1 (stereo not shown) [SN00797123],15.6
14,CCC(=O)Nc1cccc(-c2noc(C3CCCN(C(=O)c4ccc(C)c(F)c4)C3)n2)c1 (stereo not shown) [SN00797220],14.6
15,Cc1nc(-c2cc(S(=O)(=O)N3CCCCCC3)c(C)s2)sc1C [SN00797236],11.8
16,CCN(c1cccc(C)c1)S(=O)(=O)c1cc(-c2nc(C)c(C)s2)sc1C [SN00797239],10.7
17,Cc1cc(-c2csc(S(=O)(=O)Nc3ccc(Cl)c(C(F)(F)F)c3)c2)on1 [SN00797257],0.0
18,CCCn1nccc1-c1csc(S(=O)(=O)NC(C)C)c1 [SN00797311],9.7
19,Cc1cccc(CC(=O)N2CCN(c3nc4cccnc4n(Cc4ccccc4)c3=O)CC2)c1 [SN00797319],38.8
20,C=CCn1c(=O)c(N2CCC(NC(=O)NC3CCCC3)CC2)nc2cccnc21 [SN00797341],6.8
21,COc1ccc(-c2nc(Cn3nnc(C(=O)Nc4ccc(F)cc4F)c3N)c(C)o2)c(OC)c1 [SN00797364],3.5
22,CC1CCC(NC(=O)c2ccc(-c3noc(C4CCN(C(=O)c5ccccc5)CC4)n3)cc2)CC1 (stereo not shown) [SN00797379],0.0
23,COc1ccc(CNC(=O)c2ccc(-c3noc(C4CCCN(C(=O)c5ccccc5)C4)n3)cc2)cc1 (stereo not shown) [SN00797402],14.7
24,Cc1ccc(NC(=O)c2ccc(-c3noc(C4CCCN(C(=O)c5ccccc5)C4)n3)cc2)cc1 (stereo not shown) [SN00797407],5.6
25,Cc1ccc(N2CC(C(=O)N3CCCC3c3nc(-c4cccc(C)c4)no3)CC2=O)cc1 (stereo not shown) [SN00797413],0.0

row,SMILES,% Inhibition n=1 48h [%]
1,Cc1ccc(C(=O)N2CCCC2c2nc(-c3cccc(C)c3)no2)cc1 (stereo not shown) [SN00797416],0.0
2,O=C(NCCc1ccccc1)N1CCCC1c1nc(-c2ccccc2)no1 (stereo not shown) [SN00797440],0.0
3,Cc1cccc(-c2noc(C3CCCN3S(=O)(=O)c3ccc(C(C)(C)C)cc3)n2)c1 (stereo not shown) [SN00797487],0.0
4,Cc1cccc(-c2noc(C3CCCN3S(=O)(=O)c3cc(C)c(C)cc3C)n2)c1 (stereo not shown) [SN00797488],0.0
5,CCCNC(=O)Cn1cccc1-c1nc(-c2ccc(Cl)cc2)cs1 [SN00797520],24.8
6,COc1ccc(CNS(=O)(=O)c2ccc3onc(C(=O)N4CCCCC4)c3c2)cc1OC [SN00797555],0.0
7,COc1ccc(OC)c(NC(=O)C2CC(=O)N(c3cccc(NC(C)=O)c3)C2)c1 (stereo not shown) [SN00797576],0.0
8,O=C(Nc1ccc2sc(NS(=O)(=O)c3ccccc3)nc2c1)Nc1ccccc1Cl [SN00797595],4.6
9,O=C(NCC1CCCO1)Nc1ccc2sc(NS(=O)(=O)c3ccccc3)nc2c1 (stereo not shown) [SN00797600],23.5
10,COc1ccc(CNC(=O)c2sc(Nc3ccc(F)cn3)nc2C)cc1 [SN00797617],12.4
11,Cc1ccnc(Nc2nc(C)c(C(=O)NC3CC3)s2)c1 [SN00797622],13.3
12,COc1ccc(CCNS(=O)(=O)c2cccc(-c3nc(-c4ccc(C)cc4)no3)c2)cc1OC [SN00797669],6.7
13,Cc1ccc(-c2noc(-c3cccc(S(=O)(=O)N4CCN(c5ccc(F)cc5)CC4)c3)n2)cc1 [SN00797676],0.0
14,Cc1ccc(-c2nnc(-c3cccnc3N3CCCC3)o2)cc1 [SN00797693],0.0
15,COc1ccc(-c2nnc(-c3cccnc3N3CCN(C(=O)c4cccc(OC)c4)CC3)o2)cc1 [SN00797707],2.3
16,CCCOc1ccc(-c2noc(Cc3nc(-c4cccc(OC)c4)cs3)n2)cc1 [SN00797723],4.6
17,COc1ccc2cc(-c3csc(Cc4nc(-c5ccccn5)no4)n3)c(=O)oc2c1 [SN00797738],2.5
18,NC(=O)C1CCN(C(=O)c2snc(C(=O)NCc3ccccc3)c2N)CC1 [SN00797750],8.9
19,COc1cccc(CNC(=O)c2nsc(C(=O)NCc3ccccc3F)c2N)c1 [SN00797759],13.9
20,CCCCOc1ccc(CNC(=O)C2CCN(c3nccc4sc(C)cc34)CC2)cc1 [SN00797785],27.9
21,Cn1ccc2c(cc(C(=O)N3CCC(N4CCCCC4)CC3)n2C)c1=O [SN00797819],18.7
22,Cc1ccc(NC(=O)c2cc3c(=O)n(CC(C)C)ccc3n2C)cc1 [SN00797828],17.5
23,CCC(C)NC(=O)c1cc2c(=O)n(Cc3ccccc3)ccc2s1 (stereo not shown) [SN00797832],11.3
24,COc1ccc(CNC(=O)c2cc3c(=O)n(Cc4ccccc4)ccc3s2)cc1 [SN00797837],0.0
25,COc1cccc(CNC(=O)Cn2ccc3sccc3c2=O)c1 [SN00797886],6.6

# Same assay, conditions: 48 h, re-assessment
row,SMILES,% Inhibition n=2 48h [%]
1,Cn1nc(-c2nnc(-c3ccccc3Cl)o2)c2c1CCN(C(=O)c1ccc(F)c(F)c1)C2 [SN00796834],0.0
